Key:
[1] = target: T1, angiotensin II receptor subtype 1 (AT1) (Oryctolagus cuniculus, UniProt P34976); test: Binding assay, angiotensin II receptor subtype 1 (AT1); design: species or system rabbits; inhibition: dose or concentration left out as unconfirmed; settings: 3 h
T1 construct: from adrenal glands in rabbits; from tissue; host or cells: adrenal glands of rabbits
T1 sequence (P34976 1-359): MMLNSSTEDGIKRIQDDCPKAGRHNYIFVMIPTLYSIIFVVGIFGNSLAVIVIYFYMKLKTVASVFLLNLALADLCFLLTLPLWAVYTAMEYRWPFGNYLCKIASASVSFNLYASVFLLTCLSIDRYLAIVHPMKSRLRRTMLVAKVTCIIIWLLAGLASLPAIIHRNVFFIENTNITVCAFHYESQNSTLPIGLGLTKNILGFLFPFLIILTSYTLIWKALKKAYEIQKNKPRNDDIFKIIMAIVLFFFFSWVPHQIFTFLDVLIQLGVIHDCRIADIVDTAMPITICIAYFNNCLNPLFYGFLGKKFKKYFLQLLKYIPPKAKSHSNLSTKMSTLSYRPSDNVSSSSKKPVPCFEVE
Protocol: (§1) In this Example, a binding assay was carried out. That is, the affinity to the angiotensin II receptor subtype 1 orsubtype 2 was evaluated in accordance with the method described in Biochem. Pharmacol., 33, 4057-4062 (1984).
(§2) Specifically, the measurement of the total binding in the presence of each drug was performed as follows:
(§3) A mixture (final volume=0.25 ml) of a drug in a given concentration (the drug was dissolved in DMSO, and diluted to a double volume with a buffer attached to a drug discovery system to prepare a sample for the assay; 0.025 ml), a tracer (0.025 ml), and receptors (0.2 ml) was incubated [in the case of the angiotensin II receptor subtype 1 (AT1), at room temperature for 3 hours, and in the case of the subtype 2 (AT2), at 37° C. for 1 hour]. Then, the reaction mixture was filtered with suction (a GF/C filter was used in AT1, and a GF/B filter was used in AT2). The filter papers after filtration with suction (the tracer bound to the receptors) were counted by a γ-well counter (ARC-500, Aloka). The non-specific bindings were measured by repeating the above method, except that a large excess amount of a displacer was added. The specific binding of the drug in the given concentration was calculated by subtracting the non-specific binding from the total binding, respectively.
tracer: ^3 H-angiotensin II

[2] = target: T2, angiotensin II receptor subtype 2 (AT2) (Bos taurus, UniProt G5E6F7); test: Binding assay, angiotensin II receptor subtype 2 (AT2); design: species or system bovine; dose or concentration left out as unconfirmed; settings: 1 h; tracer 125I-Tyr4-angiotensin II
T2 construct: from cerebellar cortex in bovine; from tissue; host or cells: cerebellar cortex, bovine
T2 sequence (G5E6F7 1-362): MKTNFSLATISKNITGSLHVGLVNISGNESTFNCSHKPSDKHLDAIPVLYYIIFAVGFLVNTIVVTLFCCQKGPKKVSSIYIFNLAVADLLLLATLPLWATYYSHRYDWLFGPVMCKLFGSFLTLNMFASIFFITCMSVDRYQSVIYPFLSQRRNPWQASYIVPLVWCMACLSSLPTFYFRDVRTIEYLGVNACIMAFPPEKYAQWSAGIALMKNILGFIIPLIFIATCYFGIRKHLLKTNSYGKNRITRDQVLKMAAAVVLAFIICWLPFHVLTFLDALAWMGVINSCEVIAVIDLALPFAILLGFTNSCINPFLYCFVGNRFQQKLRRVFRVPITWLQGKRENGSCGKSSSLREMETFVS
Protocol: as §1, §2, §3
In AT1 and AT2, the percentages found to inhibit the bindings of radioactive ligands (tracer) to receptors by the drugs to be tested (IC50 value of concentration to show 50% inhibition, […]) were measured, using the drugs to be tested and control drugs in the given concentration.
receptor: from cerebellar cortex in bovine
tracer: ^125 I-Tyr^4 -angiotensin II
control drug: angiotensin II (human)
(displacer): angiotensin II (human)

[3] = test system: ICR female mice; test: Acute toxicity (single oral administration); format: in vivo; settings: 500 mg/kg single oral; deaths observed for 6 days
Protocol: Acute toxicity was evaluated in this Example. As a compound to be examined, 2-ethoxy-1-[[4'-(2"-N,N-dimethylamino-ethoxycarbonyl)phenyl]methyl]-1H-benzimidazole-6-carboxylic acid morpholide (Compound No. 13) prepared in Example 6 was used.
Five-week-old ICR female mice (5 mice per group) were bredfor acclimation for a week. Then, Compound No. 13 was dissolved or suspended in 0.5% methylcellulose aqueous solution, and orally administered to the mice in a single dosage (500 mg/kg). […] Further, as to Compound No. 55, Compound No. 57, Compound No. 59, and Compound No. 65 prepared in Examples 26, 28, 31, and 23, respectively, acute toxicity was also evaluated.

[4] = J. Clin. Pharmacol., 30: 155 to 158, 1990; cited from earlier work

Row | SMILES | inhibition [1] [%] | inhibition [2] [%] | also measured
1 | CCOc1nc2ccc(C(=O)N3CCCC3)cc2n1Cc1ccc(C(=O)OCCN(C)C)cc1 [Compound No. 65, 2-ethoxy-1-[[4'-[2"-(dimethylamino)-ethoxycarbonyl]phenyl]methyl]-1H-benzimidazole-6-carboxylic acid pyrrolidinamide] | – | – | Number of deaths/number of survivals [3]: 0/5
2 | CCOc1nc2ccc(C(=O)N3CCCCC3)cc2n1Cc1ccc(C(=O)OCCN(C)C)cc1 [Compound No. 55, 2-ethoxy-1-[[4'-(2"-N,N-dimethylaminoethoxycarbonyl)phenyl]methyl]-1H-benzimidazole-6-carboxylic acid piperidinamide] | – | – | Number of deaths/number of survivals [3]: 0/5
3 | C[C@H](CS)C(=O)N1CCC[C@H]1C(=O)O [Captopril] | – | – | Blood pressure [4]: the blood pressure is lowered; progress of the kidney diseases [4]: the progress of the kidney diseases is ameliorated
4 | CCOc1nc2ccc(C(=O)N3CCCCCC3)cc2n1Cc1ccc(C(=O)OCCN(C)C)cc1 [Compound No. 59, 2-ethoxy-1-[[4'-(2"-N,N-dimethylaminoethoxycarbonyl)phenyl]methyl]-1H-benzimidazole-6-carboxylic acid perhydroazepinamide] | – | – | Number of deaths/number of survivals [3]: 0/5
5 | CCOC(=O)[C@H](CCc1ccccc1)N[C@@H](C)C(=O)N1CCC[C@H]1C(=O)O [Enalapril] | – | – | Blood pressure [4]: the blood pressure is lowered; progress of the kidney diseases [4]: the progress of the kidney diseases is ameliorated

Second part, led by results:

Row | inhibition [1] [%] | inhibition [2] [%] | SMILES | also measured
6 | 45 | 0 | CCCCOc1nc2ccc(C(=O)N3CCOCC3)cc2n1Cc1ccc(C(=O)O)cc1 [Compound No. 4] | –
7 | 45 | 0 | CCCOc1nc2ccc(C(=O)N3CCOCC3)cc2n1Cc1ccc(C(=O)O)cc1 [Compound No. 3, 2-n-propoxy-1-[(4'-carboxyphenyl)methyl]-1H-benzimidazole-6-carboxylic acid morpholide] | –
8 | 50 | 0 | CCOc1nc2ccc(C(=O)N3CCCCC3)cc2n1Cc1ccc(C(=O)O)cc1 [Compound No. 5, 2-ethoxy-1-[(4'-carboxyphenyl)methyl]-1H-benzimidazole-6-carboxylic acid piperidinamide] | –
9 | 0 | 0 | CCOc1nc2ccc(C(=O)N3CCOCC3)cc2n1Cc1ccc(O)cc1 [compound 2] | –
10 | 50 | 0 | CCOc1nc2ccc(C(=O)N3CCCC3)cc2n1Cc1ccc(C(=O)O)cc1 [Compound No. 6, 2-ethoxy-1-[(4'-carboxyphenyl)methyl]-1H-benzimidazole-6-carboxylic acid pyrrolidinamide] | –
11 | 45 | 0 | CCOc1nc2ccc(C(=O)N3CCOCC3)cc2n1Cc1ccc(C(=O)O)cc1 [Compound No. 1, 2-ethoxy-1-[(4'-carboxyphenyl)methyl]-1H-benzimidazole-6-carboxylic acid morpholide] | –
